Measured values published in patent US20230295131A1, “INHIBITORS OF RHO-ASSOCIATED COILED-COIL KINASE” (Angion Biomedica Corp., priority 2020, published 2023).
Like-named read-outs stand apart in the source and are kept apart here.

Assays:
ROCK1 = biological target: T1, ROCK1 (Homo sapiens, UniProt Q13464); test: ROCK1 kinase binding affinity, DiscoverX KINOMEscan KdELECT; conditions: 11-point 3-fold dilution
T1 construct: T7 phage fusion (kinase-tagged phage) or DNA tag for qPCR detection
Procedure: (§1) 1. ROCK1 and ROCK2 kinase assays: The ROCK1 and ROCK2 kinase binding affinities of compounds in this disclosure were determined by DiscoverX's KINOMEscan™ KdELECT technology (https://www.discoverx.com/kinomescan-elect-kinase-screening-and-profiling-services): Kinase-tagged T7 phage strains were prepared in an E. coli host derived from the BL21 strain. E. coli were grown to log-phase and infected with T7 phage and incubated with shaking at 32° C. until lysis. The lysates were centrifuged and filtered to remove cell debris. The remaining kinases were produced in HEK-293 cells and subsequently tagged with DNA for qPCR detection. […] The liganded beads were blocked with excess biotin and washed with blocking buffer (SeaBlock (Pierce), 1% BSA, 0.05% Tween 20, 1 mM DTT) to remove unbound ligand and to reduce nonspecific binding. […] Kds were determined using an 11-point 3-fold compound dilution series with three DMSO control points. […] The compounds were then diluted directly into the assays such that the final concentration of DMSO was 0.9%. All reactions performed in polypropylene 384-well plate. Each was a final volume of 0.02 ml. […] The kinase concentration in the eluates was measured by qPCR.

ROCK2 = biological target: T2, ROCK2 (Homo sapiens, UniProt O75116); test: ROCK2 kinase binding affinity, DiscoverX KINOMEscan KdELECT; conditions: for ROCK2 Selectivity: selectivity for ROCK2 over ROCK1 from Kd
T2 construct: T7 phage fusion (kinase-tagged phage) or DNA tag for qPCR detection
Procedure: as §1

[1] = KINOMEscan KdELECT, 11-point 3-fold dilution, read-out: Kd (μM) ROCK2

T2 sequence (O75116 whole entry, the tested form may be a part): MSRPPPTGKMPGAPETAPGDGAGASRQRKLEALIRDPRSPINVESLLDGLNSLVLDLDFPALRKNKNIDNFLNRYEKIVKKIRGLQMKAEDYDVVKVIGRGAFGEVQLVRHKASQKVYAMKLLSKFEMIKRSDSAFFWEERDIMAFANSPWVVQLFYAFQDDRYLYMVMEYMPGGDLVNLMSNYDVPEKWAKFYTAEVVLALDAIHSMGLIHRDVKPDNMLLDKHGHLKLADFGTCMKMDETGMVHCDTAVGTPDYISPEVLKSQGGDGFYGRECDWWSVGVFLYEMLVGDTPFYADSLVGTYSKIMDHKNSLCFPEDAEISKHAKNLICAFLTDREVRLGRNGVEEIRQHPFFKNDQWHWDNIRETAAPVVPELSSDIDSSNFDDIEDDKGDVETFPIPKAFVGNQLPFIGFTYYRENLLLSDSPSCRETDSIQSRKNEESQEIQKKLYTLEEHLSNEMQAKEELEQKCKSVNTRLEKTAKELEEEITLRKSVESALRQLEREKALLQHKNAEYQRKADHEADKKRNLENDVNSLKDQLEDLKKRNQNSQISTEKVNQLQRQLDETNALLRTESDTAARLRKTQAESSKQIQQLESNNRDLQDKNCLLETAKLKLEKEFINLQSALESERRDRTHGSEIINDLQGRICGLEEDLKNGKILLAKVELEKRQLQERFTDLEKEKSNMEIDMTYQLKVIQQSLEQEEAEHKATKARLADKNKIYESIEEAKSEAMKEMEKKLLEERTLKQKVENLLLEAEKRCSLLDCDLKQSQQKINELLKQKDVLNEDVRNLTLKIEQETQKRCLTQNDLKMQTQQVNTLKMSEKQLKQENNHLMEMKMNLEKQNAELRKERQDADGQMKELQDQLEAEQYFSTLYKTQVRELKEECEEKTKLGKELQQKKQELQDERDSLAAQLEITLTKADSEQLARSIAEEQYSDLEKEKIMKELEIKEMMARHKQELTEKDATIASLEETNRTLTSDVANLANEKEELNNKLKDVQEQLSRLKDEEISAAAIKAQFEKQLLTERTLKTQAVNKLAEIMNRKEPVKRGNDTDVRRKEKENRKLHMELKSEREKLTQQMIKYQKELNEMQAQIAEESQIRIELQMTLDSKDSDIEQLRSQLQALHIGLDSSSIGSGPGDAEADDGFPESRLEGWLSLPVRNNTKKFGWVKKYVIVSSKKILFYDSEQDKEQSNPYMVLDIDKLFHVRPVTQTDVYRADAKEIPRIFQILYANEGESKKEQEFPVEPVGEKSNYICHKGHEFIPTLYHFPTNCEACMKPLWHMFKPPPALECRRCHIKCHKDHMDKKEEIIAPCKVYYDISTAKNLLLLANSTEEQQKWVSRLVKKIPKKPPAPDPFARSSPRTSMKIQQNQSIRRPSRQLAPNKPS
T1 sequence (Q13464 whole entry, the tested form may be a part): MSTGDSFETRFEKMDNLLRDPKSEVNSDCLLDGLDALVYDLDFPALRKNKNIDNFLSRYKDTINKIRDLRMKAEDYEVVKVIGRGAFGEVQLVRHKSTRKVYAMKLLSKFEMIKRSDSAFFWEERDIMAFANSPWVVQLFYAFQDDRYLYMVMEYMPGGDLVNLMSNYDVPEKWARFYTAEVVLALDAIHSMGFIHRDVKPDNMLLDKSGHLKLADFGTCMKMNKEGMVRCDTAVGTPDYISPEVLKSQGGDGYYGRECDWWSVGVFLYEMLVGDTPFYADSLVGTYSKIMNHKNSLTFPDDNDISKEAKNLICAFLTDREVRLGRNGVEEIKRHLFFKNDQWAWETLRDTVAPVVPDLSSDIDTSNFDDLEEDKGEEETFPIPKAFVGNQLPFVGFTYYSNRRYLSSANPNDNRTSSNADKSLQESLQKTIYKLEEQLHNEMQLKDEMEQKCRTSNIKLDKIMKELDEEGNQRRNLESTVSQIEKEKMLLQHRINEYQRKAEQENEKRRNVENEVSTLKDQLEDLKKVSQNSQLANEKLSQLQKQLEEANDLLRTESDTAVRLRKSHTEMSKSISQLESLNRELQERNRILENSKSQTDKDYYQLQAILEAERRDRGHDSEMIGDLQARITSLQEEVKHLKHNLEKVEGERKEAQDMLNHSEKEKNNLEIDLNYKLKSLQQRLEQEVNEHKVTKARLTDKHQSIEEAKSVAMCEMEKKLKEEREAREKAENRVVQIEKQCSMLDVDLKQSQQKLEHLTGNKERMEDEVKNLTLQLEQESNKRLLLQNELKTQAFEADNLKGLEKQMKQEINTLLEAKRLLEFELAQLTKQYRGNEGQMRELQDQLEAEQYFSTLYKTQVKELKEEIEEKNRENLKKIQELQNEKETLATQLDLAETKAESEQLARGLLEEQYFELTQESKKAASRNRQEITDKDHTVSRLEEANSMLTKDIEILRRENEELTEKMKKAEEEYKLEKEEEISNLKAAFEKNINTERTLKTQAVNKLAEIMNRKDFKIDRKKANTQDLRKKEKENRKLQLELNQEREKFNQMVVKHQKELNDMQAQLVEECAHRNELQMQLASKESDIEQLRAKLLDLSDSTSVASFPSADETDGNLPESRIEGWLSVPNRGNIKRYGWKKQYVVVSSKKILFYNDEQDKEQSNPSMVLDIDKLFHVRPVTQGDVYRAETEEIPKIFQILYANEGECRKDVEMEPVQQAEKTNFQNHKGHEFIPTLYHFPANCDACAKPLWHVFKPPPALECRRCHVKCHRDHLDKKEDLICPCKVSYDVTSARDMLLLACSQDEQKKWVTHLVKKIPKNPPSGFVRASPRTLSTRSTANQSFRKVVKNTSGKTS

| Kd (ROCK1) [µM] | Kd (ROCK2; [1]) [µM] | Compound | ROCK2 Selectivity (ROCK2) | Kd (ROCK2) [µM] |
| --- | --- | --- | --- | --- |
| 1 to 9.9 | 0.1 to 0.99 | C(#Cc1ccnc(-c2ccnc(NCC3CCCCN3)n2)n1)c1ccc2[nH]ncc2c1 (stereo not drawn) [Ex. 9, 4-((1H-Indazol-5-yl)ethynyl)-N-(piperidin-2-ylmethyl)-[2,4′-bipyrimidin]-2′-amine] | * (<50-fold selectivity for ROCK2) |  |
| 0.1 to 0.99 | < 0.01 | OC[C@H]1CC[C@@H](CNc2nccc(-c3nccc(C#Cc4ccc5[nH]ncc5c4)n3)n2)O1 [Ex. 51, ((2R,5S)-5-(((4-((1H-Indazol-5-yl)ethynyl)-[2,4′-bipyrimidin]-2′-yl)amino)methyl)tetrahydrofuran-2-yl)methanol] | *** (151 to 500-fold selectivity for ROCK2) |  |
| 1 to 9.9 | 0.1 to 0.99 | CC(C)(N)CNc1nccc(-c2nccc(C#Cc3ccc4[nH]ncc4c3)n2)n1 [Ex. 89, N1-(4-((1H-Indazol-5-yl)ethynyl)-[2,4′-bipyrimidin]-2′-yl)-2-methylpropane-1,2-diamine] | * (<50-fold selectivity for ROCK2) |  |
| 10 to 100 | 0.1 to 0.99 | Fc1cccc(F)c1CNc1nccc(-c2nccc(C#Cc3ccc4[nH]ncc4c3)n2)n1 [Ex. 27, 4-((1H-Indazol-5-yl)ethynyl)-N-(2,6-difluorobenzyl)-[2,4′-bipyrimidin]-2′-amine] | ** (50 to 150-fold selectivity for ROCK2) |  |
| 0.1 to 0.99 | 0.01 to 0.099 | O=C(O)[C@H]1CC[C@@H](Nc2nccc(-c3nccc(C#Cc4ccc5[nH]ncc5c4)n3)n2)CC1 [Ex. 92, (1s,4s)-4-((4-((1H-Indazol-5-yl)ethynyl)-[2,4′-bipyrimidin]-2′-yl)amino)cyclohexanecarboxylic acid] | * (<50-fold selectivity for ROCK2) |  |
| 1 to 9.9 | 0.01 to 0.099 | C(#Cc1ccnc(-c2ccnc(NCc3ccccc3)n2)n1)c1ccc2[nH]ncc2c1 [Ex. 14, 4-((1H-Indazol-5-yl)ethynyl)-N-benzyl-[2,4′-bipyrimidin]-2′-amine] | * (<50-fold selectivity for ROCK2) |  |
| 1 to 9.9 | < 0.01 | Fc1cc(C#Cc2ccnc(-c3ccnc(NCC4CCCO4)n3)n2)cc2cn[nH]c12 (stereo not drawn) [Ex. 49, 4-((7-Fluoro-1H-indazol-5-yl)ethynyl)-N-((tetrahydrofuran-2-yl)methyl)-[2,4′-bipyrimidin]-2′-amine] | *** (151 to 500-fold selectivity for ROCK2) |  |
| 1 to 9.9 | < 0.01 | O[C@@H]1CC[C@@H](Nc2nccc(-c3nccc(C#Cc4ccc5[nH]ncc5c4)n3)n2)C1 [Ex. 78, (1R,3R)-3-((4-((1H-Indazol-5-yl)ethynyl)-[2,4′-bipyrimidin]-2′-yl)amino)cyclopentanol] | *** (151 to 500-fold selectivity for ROCK2) |  |
| 0.1 to 0.99 | 0.1 to 0.99 | Cc1n[nH]c2ccc(C#Cc3ccnc(-c4ccnc(NCc5ccc(F)cn5)n4)n3)cc12 [Ex. 71, N-((5-Fluoropyridin-2-yl)methyl)-4-((3-methyl-1H-indazol-5-yl)ethynyl)-[2,4′-bipyrimidin]-2′-amine] | * (<50-fold selectivity for ROCK2) |  |
| 0.1 to 0.99 | < 0.01 | C(#Cc1ccnc(-c2ccnc(NC[C@H]3CCCO3)n2)n1)c1ccc2[nH]ncc2c1 [Ex. 34, (R)-4-((1H-Indazol-5-yl)ethynyl)-N-((tetrahydrofuran-2-yl)methyl)-[2,4′-bipyrimidin]-2′-amine] | *** (151 to 500-fold selectivity for ROCK2) |  |
| 1 to 9.9 | 0.01 to 0.099 | Fc1cnccc1CNc1nccc(-c2nccc(C#Cc3ccc4[nH]ncc4c3)n2)n1 [Ex. 31, 4-((1H-Indazol-5-yl)ethynyl)-N-((3-fluoropyridin-4-yl)methyl)-[2,4′-bipyrimidin]-2′-amine] | ** (50 to 150-fold selectivity for ROCK2) |  |
| 1 to 9.9 | 0.01 to 0.099 | Fc1ccc(CNc2nccc(-c3nccc(C#Cc4ccc5[nH]ncc5c4)n3)n2)cc1 [Ex. 8, 4-((1H-Indazol-5-yl)ethynyl)-N-(4-fluorobenzyl)-[2,4′-bipyrimidin]-2′-amine] | *** (151 to 500-fold selectivity for ROCK2) |  |
| 1 to 9.9 | 0.01 to 0.099 | Fc1ccc(CNc2nccc(-c3nccc(C#Cc4ccc5[nH]ncc5c4)n3)n2)cn1 [Ex. 47, 4-((1H-Indazol-5-yl)ethynyl)-N-((6-fluoropyridin-3-yl)methyl)-[2,4′-bipyrimidin]-2′-amine] | ** (50 to 150-fold selectivity for ROCK2) |  |
| 1 to 9.9 | 0.01 to 0.099 | Fc1cccc(CNc2nccc(-c3nccc(C#Cc4ccc5[nH]ncc5c4)n3)n2)n1 [Ex. 32, 4-((1H-Indazol-5-yl)ethynyl)-N-((6-fluoropyridin-2-yl)methyl)-[2,4′-bipyrimidin]-2′-amine] | ** (50 to 150-fold selectivity for ROCK2) |  |
| 10 to 100 | 0.01 to 0.099 | C(#Cc1ccnc(-c2ccnc(NCc3nc4ccccc4[nH]3)n2)n1)c1ccc2[nH]ncc2c1 [Ex. 57, N-((1H-Benzo[d]imidazol-2-yl)methyl)-4-((1H-indazol-5-yl)ethynyl)-[2,4′-bipyrimidin]-2′-amine] | **** (>500-fold selectivity for ROCK2) |  |
| 1 to 9.9 | < 0.01 | C(#Cc1ccnc(-c2ccnc(N[C@@H]3CCOC3)n2)n1)c1ccc2[nH]ncc2c1 [Ex. 59, (R)-4-((1H-Indazol-5-yl)ethynyl)-N-(tetrahydrofuran-3-yl)-[2,4′-bipyrimidin]-2′-amine] | *** (151 to 500-fold selectivity for ROCK2) |  |
| 10 to 100 | 0.01 to 0.099 | C(#Cc1ccnc(-c2ccnc(NCC3CCCC3)n2)n1)c1ccc2[nH]ncc2c1 [Ex. 44, 4-((1H-Indazol-5-yl)ethynyl)-N-(cyclopentylmethyl)-[2,4′-bipyrimidin]-2′-amine] | *** (151 to 500-fold selectivity for ROCK2) |  |
| 1 to 9.9 | < 0.01 | C(#Cc1ccnc(-c2ccnc(NC[C@@H]3CCOC3)n2)n1)c1ccc2[nH]ncc2c1 [Ex. 58, (S)-4-((1H-Indazol-5-yl)ethynyl)-N-((tetrahydrofuran-3-yl)methyl)-[2,4′-bipyrimidin]-2′-amine] | **** (>500-fold selectivity for ROCK2) |  |
| 0.1 to 0.99 | < 0.01 | O=C(CNc1nccc(-c2nccc(C#Cc3ccc4[nH]ncc4c3)n2)n1)N1CCCC1 [Ex. 52, 2-((4-((1H-Indazol-5-yl)ethynyl)-[2,4′-bipyrimidin]-2′-yl)amino)-1-(pyrrolidin-1-yl)ethanone] | ** (50 to 150-fold selectivity for ROCK2) |  |

| Compound | Kd (ROCK1) [µM] | Kd (ROCK2; [1]) [µM] | ROCK2 Selectivity (ROCK2) | Kd (ROCK2) [µM] |
| --- | --- | --- | --- | --- |
| C[C@@H](O)CNc1nccc(-c2nccc(C#Cc3ccc4[nH]ncc4c3)n2)n1 [Ex. 79, (R)-1-((4-((1H-Indazol-5-yl)ethynyl)-[2,4′-bipyrimidin]-2′-yl)amino)propan-2-ol] | 1 to 9.9 |  | ** (50 to 150-fold selectivity for ROCK2) | 0.01 to 0.099 |
| COCCNc1nccc(-c2nccc(C#Cc3ccc4[nH]ncc4c3)n2)n1 [Ex. 75, 4-((1H-Indazol-5-yl)ethynyl)-N-(2-methoxyethyl)-[2,4′-bipyrimidin]-2′-amine] | 1 to 9.9 |  | *** (151 to 500-fold selectivity for ROCK2) | < 0.01 |
